The results in this text go back to ChEMBL document CHEMBL1121961, “Synthesis and biological evaluation of 6-ethynyluracil, a thiol-specific alkylating pyrimidine” (J Med Chem, 1982).

What all share (type): functional, cell-based
Common to all, as to settings: Mus musculus

Experiment [1] has as its system Lewis lung carcinoma cell line. The experiment can be described thus: In vitro inhibitory activity against lewis lung cell lines.
The test system of another experiment is L1210. The experiment can be described thus: In vitro inhibitory activity against leukemia L1210 cell lines.
Another experiment relates to B16. The experiment can be described thus: In vitro inhibitory activity against B16 melanoma cell lines.

In the case of `Oc1cc(/C=C/C(Br)Br)nc(O)n1`, the figures for the Concentration (in experiment [1]; in the experiment with L1210; in the experiment with B16) were 8 µM, 1 µM and 1 µM, respectively.

In the case of `C#Cc1cc(O)nc(O)n1`, the Concentration in experiment [1] was 20 µM; with L1210, 7 µM; in the experiment on B16, 10 µM.
